# Measured values taken from patent US12077503B2, “Substituted cyclic amides and their use as herbicides” (FMC CORPORATION, priority 2015, dated 2024).
# Tests used:
# Format in all cases: in vivo
# [1] = tested on: ducksalad (Heteranthera limosa); test: Test B flooded paddy test; details: Heteranthera limosa, 250 g ai/ha, Flood; 0 to 100 scale where 0 is no effect and 100 is complete control; read-out: Ducksalad plant response rating
# Summary of the method: (§1)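 Response scored visually against untreated controls, 0 = no effect and 100 = complete control, 13–15 d after treatment in the greenhouse. Compounds added to paddy water held 3 cm above soil surface. Treatment given at 2-leaf stage.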
# [2] = tested on: sedge, umbrella (small-flower umbrella sedge, Cyperus difformis); test: Test B flooded paddy test; details: Cyperus difformis, 250 g ai/ha, Flood; 0 to 100 scale where 0 is no effect and 100 is complete control; read-out: Sedge, Umbrella plant response rating
# Summary of the method: as §1
# [3] = tested on: barnyardgrass (Echinochloa crus-galli); test: Test B flooded paddy test; details: Echinochloa crus-galli, 250 g ai/ha, Flood; 0 to 100 scale where 0 is no effect and 100 is complete control; read-out: Barnyardgrass plant response rating
# Summary of the method: as §1
# [4] = tested on: rice (Oryra sativa); test: Test B flooded paddy test; details: Oryza sativa, 250 g ai/ha, Flood; 0 to 100 scale where 0 is no effect and 100 is complete control; read-out: Rice plant response rating
# Summary of the method: as §1
# [5] = tested on: wheat (Triticum aestivum); test: Test A postemergence; details: Triticum aestivum, post-emergence, 240 h, Postemergence, 31 g ai/ha; 0 is no effect, 100 is complete control; read-out: Wheat plant response rating (0 to 100 scale)
# Summary of the method: (§2)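 Visual injury, scored on a 0–100 scale relative to untreated controls, was recorded about 10 d after application. Treatments were a preemergence soil spray over planted seeds or a postemergence spray on plants at the one- to two-leaf stage, 2 to 10 cm tall, all in loam soil–sand blend in the greenhouse.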
# [6] = tested on: pigweed (Amaranthus retroflexus); test: Test A postemergence; details: Amaranthus retroflexus, post-emergence, 240 h, read-out: Pigweed plant response rating (0 to 100 scale)
# Summary of the method: as §2
# [7] = tested on: Kochia (Kochia scoparia); test: Test A postemergence; details: Bassia scoparia, post-emergence, 240 h, read-out: Kochia plant response rating (0 to 100 scale)
# Summary of the method: as §2
# [8] = tested on: ragweed (common ragweed, Ambrosia elatior); test: Test A postemergence; details: Ambrosia artemisiifolia, post-emergence, 240 h, read-out: Ragweed plant response rating (0 to 100 scale)
# Summary of the method: as §2
# [9] = tested on: ryegrass, Italian (Italian ryegrass, Lolium multiflorum); test: Test A postemergence; details: Lolium multiflorum, post-emergence, 240 h, read-out: Ryegrass, Italian plant response rating (0 to 100 scale)
# Summary of the method: as §2
# [10] = tested on: barnyardgrass (Echinochloa crus-galli); test: Test A postemergence; details: Echinochloa crus-galli, post-emergence, 240 h, read-out: Barnyardgrass plant response rating (0 to 100 scale)
# Summary of the method: as §2
# [11] = tested on: corn (Zea mays); test: Test A postemergence; details: Zea mays, post-emergence, 240 h, read-out: Corn plant response rating (0 to 100 scale)
# Summary of the method: as §2
# [12] = tested on: Galium (catchweed bedstraw, Galium aparine); test: Test A postemergence; details: Galium, post-emergence, 240 h, read-out: Galium plant response rating (0 to 100 scale)
# Summary of the method: as §2
# [13] = tested on: blackgrass (Alopecurus myosuroides); test: Test A postemergence; details: Alopecurus myosuroides, post-emergence, 240 h, read-out: Blackgrass plant response rating (0 to 100 scale)
# Summary of the method: as §2
# [14] = tested on: giant foxtail (Setaria faberii); test: Test A postemergence; details: Setaria faberi, post-emergence, 240 h, read-out: Foxtail, Giant plant response rating (0 to 100 scale)
# Summary of the method: as §2
# [15] = tested on: pigweed (Amaranthus retroflexus); test: Test A preemergence; details: Amaranthus retroflexus, pre-emergence, 240 h, 0 to 100 scale where 0 is no effect and 100 is complete control, read-out: Pigweed plant response rating
# [16] = tested on: Kochia (Kochia scoparia); test: Test A preemergence; details: Bassia scoparia, pre-emergence, 240 h, 0 to 100 scale where 0 is no effect and 100 is complete control, read-out: Kochia plant response rating
# Summary of the method: as §2
# [17] = tested on: ragweed (common ragweed, Ambrosia elatior); test: Test A preemergence; details: Ambrosia artemisiifolia, pre-emergence, 240 h, 0 to 100 scale where 0 is no effect and 100 is complete control, read-out: Ragweed plant response rating
# Summary of the method: as §2
# [18] = tested on: ryegrass, Italian (Italian ryegrass, Lolium multiflorum); test: Test A preemergence; details: Lolium multiflorum, pre-emergence, 240 h, 0 to 100 scale where 0 is no effect and 100 is complete control, read-out: Ryegrass, Italian plant response rating
# Summary of the method: as §2
# [19] = tested on: barnyardgrass (Echinochloa crus-galli); test: Test A preemergence; details: Echinochloa crus-galli, pre-emergence, 240 h, 0 to 100 scale where 0 is no effect and 100 is complete control, read-out: Barnyardgrass plant response rating
# Summary of the method: as §2
# [20] = tested on: giant foxtail (Setaria faberii); test: Test A preemergence; details: Setaria faberi, pre-emergence, 240 h, 0 to 100 scale where 0 is no effect and 100 is complete control, read-out: Foxtail, Giant plant response rating
# Summary of the method: as §2
# [21] = 125 g ai/ha, postemergence, visual injury vs untreated controls after approx. 10 d, 0 = no effect, 100 = complete control
# [22] = Postemergence, 31 g ai/ha, 0 is no effect, 100 is complete control
# [23] = 125 g ai/ha, preemergence, visual injury rating, approximately 10 d
smiles,measurement,setting,value
O=C1NC[C@H](c2ccc(F)c(Oc3ccccc3)c2)[C@H]1C(=O)Nc1cccc(F)c1F [Compound 1258],pest or weed control at 250 g/ha,[1],0%
same,pest or weed control at 250 g/ha,[2],0%
same,pest or weed control at 250 g/ha,[3],40%
same,pest or weed control at 250 g/ha,[4],0%
same,plant injury at 31 g/ha,[5],0%
same,pest or weed control at 125 g/ha,[6]; [21],30%
same,pest or weed control at 31 g/ha,[6]; [22],0%
same,pest or weed control at 125 g/ha,[7]; [21],0%
same,pest or weed control at 31 g/ha,[7]; [22],0%
same,pest or weed control at 125 g/ha,[8]; [21],0%
same,pest or weed control at 31 g/ha,[8]; [22],0%
same,pest or weed control at 125 g/ha,[9]; [21],0%
same,pest or weed control at 31 g/ha,[9]; [22],0%
same,pest or weed control at 125 g/ha,[10]; [21],70%
same,pest or weed control at 31 g/ha,[10]; [22],30%
same,plant injury at 125 g/ha,[11]; [21],40%
same,plant injury at 31 g/ha,[11]; [22],0%
same,pest or weed control at 125 g/ha,[12]; [21],80%
same,pest or weed control at 31 g/ha,[12]; [22],70%
same,pest or weed control at 125 g/ha,[13]; [21],0%
same,pest or weed control at 31 g/ha,[13]; [22],0%
same,pest or weed control at 125 g/ha,[14]; [21],60%
same,pest or weed control at 31 g/ha,[14]; [22],30%
same,pest or weed control at 31 g/ha,"[15]; 31 g ai/ha, Preemergence",0%
same,pest or weed control at 125 g/ha,[15]; [23],0%
same,pest or weed control at 31 g/ha,"[16]; 31 g ai/ha, Preemergence",0%
same,pest or weed control at 125 g/ha,[16]; [23],0%
same,pest or weed control at 31 g/ha,"[17]; 31 g ai/ha, Preemergence",0%
same,pest or weed control at 125 g/ha,[17]; [23],0%
same,pest or weed control at 31 g/ha,"[18]; 31 g ai/ha, Preemergence",0%
same,pest or weed control at 125 g/ha,[18]; [23],0%
same,pest or weed control at 31 g/ha,"[19]; 31 g ai/ha, Preemergence",0%
same,pest or weed control at 125 g/ha,[19]; [23],30%
same,pest or weed control at 31 g/ha,"[20]; 31 g ai/ha, Preemergence",40%
same,pest or weed control at 125 g/ha,[20]; [23],70%
